Source: ChEMBL document CHEMBL5316362, “Synthesis of the Purported Structure of Glyphaeaside C and Proposed Revisions to the Structures of the Glyphaeaside Alkaloids” (J Nat Prod, 2023)
Values belong to the molecule of their own block, whether it stands above or below them. Active and inactive are the calls of the source. The calls are words filed in the database; no cut-off is given here.

Legend:
[1] = Inhibition of Almond beta-glucosidase; design: species or system Prunus dulcis
[2] = tested on: Prunus dulcis; assay: Inhibition of Almond beta-glucosidase at 412 uM relative to control
[3] = species on record: Bos taurus; assay: Inhibition of bovine liver beta-glucuronidase at 100 uM
[4] = target: Beta-glucuronidase (Escherichia coli (strain K12)) (UniProt P05804); assay: Inhibition of Escherichia coli beta-glucuronidase at 100 uM
[5] = tested on: Penicillium decumbens; assay: Inhibition of Penicillium decumbens alpha-L-rhamnosidase at 100 uM relative to control
[6] = target: Lysosomal alpha-glucosidase (Homo sapiens, UniProt P10253); assay: Inhibition of human lysosomal alpha-glucosidase; type: subcellular, Lysosome
[7] = target: Alpha-glucosidase (Saccharomyces cerevisiae S288c, UniProt P53341+P38158+P07265); assay: Inhibition of yeast alpha-glucosidase; type: protein assay
[8] = species on record: Sus scrofa; assay: Inhibition of porcine kidney trehalase at 100 uM relative to control; type: tissue-based
[9] = species on record: Homo sapiens; assay: Inhibition of human lysosomal alpha-galactosidase at 100 uM realtive to control; type: subcellular; conditions: Lysosome
[10] = tested on: Prunus dulcis; assay: (§1) Inhibition of almond beta-glucosidase at 100 uM relative to control
[11] = tested on: Aspergillus niger; assay: Inhibition of Aspergillus niger amyloglucosidase at 100 uM relative to control
[12] = Inhibition of Bovine liver beta-glucosidase; type: tissue-based, Bos taurus
[13] = target: Alpha-galactosidase (Coffea arabica, UniProt Q42656); assay: Inhibition of coffee bean alpha-galactosidase
[14] = Inhibition of rat intestinal maltase; type: tissue-based, Intestine
[15] = tested on: Helix pomatia; assay: Inhibition of snail beta-mannosidase at 100 uM
[16] = target: T1, Alpha-mannosidase (Canavalia ensiformis) (UniProt C0HJB3); assay: Inhibition of jack bean alpha-mannosidase at 100 uM
T1 sequence (whole entry): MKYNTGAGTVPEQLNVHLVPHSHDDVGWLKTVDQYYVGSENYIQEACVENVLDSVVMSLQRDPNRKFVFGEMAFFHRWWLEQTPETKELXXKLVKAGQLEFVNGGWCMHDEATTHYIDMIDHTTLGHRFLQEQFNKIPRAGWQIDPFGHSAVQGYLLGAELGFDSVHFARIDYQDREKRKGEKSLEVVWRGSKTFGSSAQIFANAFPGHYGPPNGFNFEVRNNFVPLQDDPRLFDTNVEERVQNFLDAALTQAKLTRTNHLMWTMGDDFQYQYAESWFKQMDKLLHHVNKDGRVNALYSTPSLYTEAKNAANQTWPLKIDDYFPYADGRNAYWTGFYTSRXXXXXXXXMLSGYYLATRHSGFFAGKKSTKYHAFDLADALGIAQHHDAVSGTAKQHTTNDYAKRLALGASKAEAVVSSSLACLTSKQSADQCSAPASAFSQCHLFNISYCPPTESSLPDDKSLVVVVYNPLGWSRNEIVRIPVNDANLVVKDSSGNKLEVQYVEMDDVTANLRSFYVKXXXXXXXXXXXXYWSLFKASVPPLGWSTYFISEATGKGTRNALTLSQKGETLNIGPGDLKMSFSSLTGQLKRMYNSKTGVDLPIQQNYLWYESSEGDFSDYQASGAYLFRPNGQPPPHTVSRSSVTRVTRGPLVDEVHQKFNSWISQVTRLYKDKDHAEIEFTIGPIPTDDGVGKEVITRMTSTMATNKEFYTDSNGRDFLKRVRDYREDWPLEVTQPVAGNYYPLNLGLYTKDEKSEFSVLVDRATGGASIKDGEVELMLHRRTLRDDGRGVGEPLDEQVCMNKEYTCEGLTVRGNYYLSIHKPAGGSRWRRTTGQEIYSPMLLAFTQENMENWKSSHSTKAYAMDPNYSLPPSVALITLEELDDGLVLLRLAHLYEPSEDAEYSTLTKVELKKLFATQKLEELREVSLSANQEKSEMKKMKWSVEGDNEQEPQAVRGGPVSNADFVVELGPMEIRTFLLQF

[17] = Inhibition of bovine liver beta-galactosidase; type: tissue-based, Bos taurus
[18] = Inhibition of rice alpha glucosidase; design: species or system Oryza sativa
[19] = target: T2, Tissue alpha-L-fucosidase (Bos taurus) (UniProt Q2KIM0); assay: Inhibition of bovine kidney alpha-L-fucosidase at 100 uM
T2 sequence (whole entry): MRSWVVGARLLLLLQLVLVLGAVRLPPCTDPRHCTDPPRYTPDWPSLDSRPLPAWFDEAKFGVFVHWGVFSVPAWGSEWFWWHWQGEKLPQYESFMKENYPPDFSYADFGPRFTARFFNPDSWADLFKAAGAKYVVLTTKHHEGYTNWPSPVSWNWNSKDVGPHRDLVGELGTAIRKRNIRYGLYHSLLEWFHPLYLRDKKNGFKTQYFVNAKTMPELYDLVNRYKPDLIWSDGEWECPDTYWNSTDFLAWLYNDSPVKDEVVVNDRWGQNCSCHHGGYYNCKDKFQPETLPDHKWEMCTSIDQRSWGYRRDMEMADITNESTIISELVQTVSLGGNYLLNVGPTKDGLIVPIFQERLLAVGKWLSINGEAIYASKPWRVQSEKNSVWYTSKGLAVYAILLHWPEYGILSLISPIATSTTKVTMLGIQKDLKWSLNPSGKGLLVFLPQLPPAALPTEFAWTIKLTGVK

[20] = Inhibition of Almond beta-glucosidase using p-nitrophenyl glycoside as substrate preincubated for 5 mins followed by substrate addition and measured after 15 mins by spectrometry analysis; design: species or system Prunus dulcis
[21] = Inhibition of human lysosomal alpha-galactosidase; type: subcellular, Lysosome
[22] = target: T1, Alpha-mannosidase (Canavalia ensiformis); assay: Inhibition of jack bean alpha-mannosidase at 1000 uM
[23] = target: Beta-glucuronidase (Escherichia coli (strain K12)) (UniProt P05804); assay: Inhibition of Escherichia coli beta-glucuronidase at 1000 uM
[24] = tested on: Aspergillus niger; assay: Inhibition of Aspergillus niger amyloglucosidase at 1000 uM relative to control
[25] = tested on: Helix pomatia; assay: Inhibition of snail beta-mannosidase at 1000 uM
[26] = as §1; design: species or system Prunus dulcis
[27] = species on record: Sus scrofa; assay: Inhibition of porcine kidney trehalase at 1000 uM relative to control; type: tissue-based
[28] = tested on: Penicillium decumbens; assay: Inhibition of Penicillium decumbens alpha-L-rhamnosidase at 1000 uM relative to control
[29] = target: T2, Tissue alpha-L-fucosidase (Bos taurus); assay: Inhibition of bovine kidney alpha-L-fucosidase at 1000 uM; type: tissue-based
[30] = species on record: Bos taurus; assay: Inhibition of bovine liver beta-glucuronidase at 1000 uM; type: tissue-based
[31] = tested on: Prunus dulcis; assay: Inhibition of almond beta-glucosidase at 1000 uM relative to control
[32] = target: Alpha-galactosidase (Coffea arabica) (UniProt Q42656); assay: Inhibition of coffee bean alpha-galactosidase at 1000 uM relative to control
Alpha-galactosidase (Coffea arabica), sequence (Q42656 16-378 limits assumed): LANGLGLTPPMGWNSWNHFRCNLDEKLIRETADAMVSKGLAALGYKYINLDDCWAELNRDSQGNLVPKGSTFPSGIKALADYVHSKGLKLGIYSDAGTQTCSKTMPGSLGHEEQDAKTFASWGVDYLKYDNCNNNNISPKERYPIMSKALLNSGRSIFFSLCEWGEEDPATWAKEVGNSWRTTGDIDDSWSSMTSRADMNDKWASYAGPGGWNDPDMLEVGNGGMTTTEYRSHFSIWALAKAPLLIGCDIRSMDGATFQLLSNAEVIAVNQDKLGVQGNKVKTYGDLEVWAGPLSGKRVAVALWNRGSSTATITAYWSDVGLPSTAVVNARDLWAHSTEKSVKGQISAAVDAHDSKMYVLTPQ

Alpha-galactosidase, sequence (Q42656 whole entry): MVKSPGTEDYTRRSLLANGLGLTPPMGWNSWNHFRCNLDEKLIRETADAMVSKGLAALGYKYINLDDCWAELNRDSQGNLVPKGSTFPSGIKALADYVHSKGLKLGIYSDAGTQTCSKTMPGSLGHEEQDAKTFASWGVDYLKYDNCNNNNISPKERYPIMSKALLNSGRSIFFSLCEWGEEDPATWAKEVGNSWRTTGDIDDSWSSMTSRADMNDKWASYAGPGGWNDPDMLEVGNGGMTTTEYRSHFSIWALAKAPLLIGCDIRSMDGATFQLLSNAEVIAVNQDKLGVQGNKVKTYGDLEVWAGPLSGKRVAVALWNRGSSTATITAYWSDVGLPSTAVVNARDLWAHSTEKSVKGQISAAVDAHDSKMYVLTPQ
Beta-glucuronidase (Escherichia coli (strain K12)), sequence (P05804 whole entry, looked up): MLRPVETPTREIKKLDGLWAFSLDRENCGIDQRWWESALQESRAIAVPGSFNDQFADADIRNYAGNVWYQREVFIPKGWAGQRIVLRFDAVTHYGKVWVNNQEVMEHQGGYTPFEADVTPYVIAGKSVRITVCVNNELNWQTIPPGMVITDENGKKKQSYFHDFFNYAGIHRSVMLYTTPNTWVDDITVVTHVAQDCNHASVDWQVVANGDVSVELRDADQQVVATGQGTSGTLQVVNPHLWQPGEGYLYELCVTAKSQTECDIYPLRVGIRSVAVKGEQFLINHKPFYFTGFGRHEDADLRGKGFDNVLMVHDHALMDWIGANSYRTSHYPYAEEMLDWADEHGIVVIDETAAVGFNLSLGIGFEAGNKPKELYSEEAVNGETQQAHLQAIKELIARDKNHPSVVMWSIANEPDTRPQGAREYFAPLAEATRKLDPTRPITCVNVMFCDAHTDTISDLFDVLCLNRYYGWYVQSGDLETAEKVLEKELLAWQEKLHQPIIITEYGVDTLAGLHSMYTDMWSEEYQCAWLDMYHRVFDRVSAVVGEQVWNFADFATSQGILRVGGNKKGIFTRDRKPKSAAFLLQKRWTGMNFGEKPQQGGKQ

IC50 [1]: 0.92 µM
SMILES: OC[C@H]1N[C@H]([C@H](O)CCCCCC[C@H](O)[C@@H](O)Cc2ccc(O)cc2)[C@@H](O)[C@@H]1O

inhibition [2]: 15.2%
SMILES: OCCCCCCCCCCCC[C@H](O)[C@@H]1N[C@@H](CO)[C@H](O)[C@H]1O

IC50 [1]: 15 µM
SMILES: OC[C@H]1N[C@H]([C@H](O)C(O)CCCCCC(O)C(O)C(O)c2ccccc2)[C@@H](O[C@@H]2O[C@H](CO)[C@@H](O)[C@H](O)[C@H]2O)[C@H]1O (some centres undefined)

inhibition [3]: inactive
inhibition [4]: inactive
inhibition [5]: 10.9%
IC50 [6]: 0.25 µM
IC50 [7]: 95 µM
inhibition [8]: 13.2%
inhibition [9]: 42.9%
inhibition [10]: 33.1%
inhibition [11]: 16.4%
IC50 [12]: 25 µM
IC50 [13]: 22 µM
IC50 [14]: 0.95 µM
inhibition [15]: inactive
inhibition [16]: inactive
IC50 [17]: 4.1 µM
IC50 [18]: 0.4 µM
inhibition [19]: inactive
SMILES: O=C(O)C(F)(F)F.OC[C@H]1N[C@H](CCCCCCCCCc2ccc(O)cc2)[C@H](O)[C@@H](O)[C@@H]1O

IC50 [1]: 40 µM
SMILES: OC[C@H]1N[C@H](CO)[C@@H](O)[C@H]1O

IC50 [20]: 0.15 µM
SMILES: OC[C@H]1N[C@H](CCCCCCC(O)C(O)Cc2ccc(O)cc2)[C@H](O)[C@@H](O)[C@@H]1O (some centres undefined)

IC50 [21]: 13 µM
inhibition [22]: inactive
inhibition [23]: inactive
inhibition [24]: 38.8%
IC50 [6]: 0.6 µM
IC50 [7]: 71 µM
inhibition [25]: inactive
IC50 [26]: 175 µM
inhibition [27]: 43.2%
inhibition [28]: 43.8%
IC50 [12]: 195 µM
IC50 [13]: 3.3 µM
IC50 [14]: 1.7 µM
inhibition [29]: inactive
inhibition [30]: inactive
IC50 [17]: 52 µM
IC50 [18]: 0.7 µM
IC50 [1]: 175 µM
SMILES: CCCCCCCC[C@H]1N[C@H](CO)[C@@H](O)[C@H](O)[C@H]1O

IC50 [13]: 8 µM
inhibition [31]: < 50%
SMILES: OCCCCCC/C=C\C[C@H](O)[C@@H](O)[C@H]1N[C@H](CO)[C@H](O)[C@@H]1O[C@@H]1O[C@H](CO)[C@@H](O)[C@H](O)[C@H]1O

IC50 [1]: 68 µM
SMILES: OC[C@H]1N[C@H]([C@H](O)C(O)CCCCCCC(O)C(O)c2ccccc2)[C@@H](O[C@@H]2O[C@H](CO)[C@@H](O)[C@H](O)[C@H]2O)[C@H]1O (some centres undefined)

inhibition [32]: 76%
SMILES: OC[C@H]1N[C@H](C(O)CCCCCCC(O)C(O)c2ccccc2)[C@H](O)[C@@H](O)[C@H]1O (some centres undefined)
